# From patent US7714018B2, “Heterocyclic antiviral compounds” (Roche Palo Alto LLC, priority 2004, dated 2010)
# Counter-ions that a name gives are not always drawn.
# Tests used:
# [1] = target: T1, Human CCR5 receptor (Homo sapiens, UniProt P51681); test: Human CCR5 receptor-ligand binding assay (125I RANTES displacement); conditions: 0.1 nM 125I RANTES, CHO-Gα16-hCCR5 cells, RT 2 h
# T1 construct: expressed in transfected cells
# From the text: Human CCR5 receptor (Genebank ID: 29169292) was cloned into mammalian expression vector, pTarget (Promega). The construct was transfected into CHO-Gα16 cells by using Fugene Reagent (Roche). Clones were selected under antibiotic pressure (G418 and Hygromycin) and sorted 4 times with a fluorescence activates cell sorter and a monoclonal antibody specific for CCR5 receptor (BD Biosciences Pharmigen, Mab 2D7, Cat. No. 555993). The clone with highest expression (100,000 copies per cell) was chosen for the binding assays.
# Adherent cells in […] tissue culture flask (˜90% confluent) were harvested using 1 mM EDTA in PBS (phosphate-buffered saline) without Ca^2+ and Mg^2+. Cells were washed twice with PBS containing no Ca^2+ and Mg^2+. CHO-Gα16-hCCR5 cells were then resuspended (1×10^6/ml) in ice cold binding buffer (50 mM HEPES, 1 mM CaCl2, 5 mM MgCl2, 0.5% BSA, 0.05% NaN3, pH 7.24), pH 7.4), supplemented with freshly made 0.5% BSA and 0.05% NaN3.
# Eighty μl CHO-Gα16-hCCR5 (1×10^6/ml) cells were added to 96 well plates. All dilutions were made in binding buffer (50 mM HEPES, 1 mM CaCl2, 5 mM MgCl2, 0.5% BSA, 0.05% NaN3, pH 7.24).
# The plates were incubated on a cell shaker at RT for 2 h with a final concentration of 0.1 nM ^125I RANTES or ^125I MIP-1α or ^125I MIP-1β. The compound dilutions were made in PBS, 1% BSA. Total reaction volume was 100 μl per well. The test compounds were added to the cells prior to the addition of radioligand.
# After incubation, the cells were harvested onto GF/C filter plates using Packard cell harvester. Filters were pretreated with 0.3% PEI/0.2% BSA for 30 min. The filter plate was washed rapidly 5 times with 25 mM HEPES, 500 mM NaCl, 1 mM CaCl2 and 5 mM MgCl2 adjusted to pH 7.1. Plates were dried in oven (70° C.) for 20 min, added with 40 μl scintillation fluid and sealed with Packard TopSeal-A. Packard Top Count was used to measure of the radioactivity for 1 min per well.
# Total binding was determined with control wells added with radioisotope and buffer and the non-specific binding was determined using an excess cold RANTES to some of the control wells. Specific binding was determined by subtracting the non-specific form total binding. Results are expressed as the percentage of specific ^125I RANTES binding. IC50 values were determined using varying concentrations of the test ligand in triplicates and the data was analyzed using GraphPad Prism (GraphPad, San Diego, Calif.).
# T1 sequence (P51681 whole entry): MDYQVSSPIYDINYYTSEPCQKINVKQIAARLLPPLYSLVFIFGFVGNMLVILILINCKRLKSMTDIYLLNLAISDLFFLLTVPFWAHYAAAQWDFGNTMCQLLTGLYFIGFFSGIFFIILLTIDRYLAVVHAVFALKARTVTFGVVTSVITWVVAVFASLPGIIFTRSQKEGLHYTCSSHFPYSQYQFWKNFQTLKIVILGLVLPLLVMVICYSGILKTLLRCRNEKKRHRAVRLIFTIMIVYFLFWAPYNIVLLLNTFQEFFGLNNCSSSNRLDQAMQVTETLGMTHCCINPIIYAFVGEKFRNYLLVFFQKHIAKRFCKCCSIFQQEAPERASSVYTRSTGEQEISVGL
melting point [°C],IC50 [1] [µM],SMILES
60.9 to 63.9,–,"Cc1cccc(C)c1C(=O)N1C[C@H]2CN(CCC(NC(=O)C3CCCC3)c3ccccc3)C[C@H]2C1 (stereo partly drawn) [Compound I-3, Cyclopentanecarboxylic acid {3-[5-(2,6-dimethyl-benzoyl)-hexahydro-pyrrolo[3,4-c]pyrrol-2-yl]-1-phenyl-propyl}-amide]"
48 to 49,0.016,"Cc1ncnc(C)c1C(=O)N1CC2CN(CCC(NC(=O)C3CCCC3)c3ccccc3)CC2C1 (stereo not drawn) [Compound I-29, Cyclopentanecarboxylic acid {3-[5-(4,6-dimethyl-pyrimidine-5-carbonyl)-hexahydro-pyrrolo[3,4-c]pyrrol-2-yl]-1-phenyl-propyl}-amide]"
68.8 to 73.6,0.037,Cc1ccnc(C)c1C(=O)N1CC2CN(CC[C@H](NC(=O)C3CCCC3)c3ccccc3)CC2C1 (stereo partly drawn) [Compound I-78]
78.9 to 84.9,–,"Cc1cccc(C)c1C(=O)N1CC2CN(C(CO)CC(NC(=O)C3CCCC3)c3ccccc3)CC2C1 (stereo not drawn) [Compound I-360, Cyclopentanecarboxylic acid {3-[5-(2,6-dimethyl-benzoyl)-hexahydro-pyrrolo[3,4-c]pyrrol-2-yl]-4-hydroxy-1-phenyl-butyl}-amide]"
131.8 to 133.2,–,"Cc1ncnc(C)c1C(=O)N1CC2CN(CCC(NC(=O)C3CCC(F)(F)CC3)c3ccccc3)CC2C1 (stereo not drawn) [Compound I-435, 4,4-Difluoro-cyclohexanecarboxylic acid {3-[5-(4,6-dimethyl-pyrimidine-5-carbonyl)-hexahydro-pyrrolo[3,4-c]pyrrol-2-yl]-1-phenyl-propyl}-amide]"
71.3 to 72.9,–,"Cc1ncnc(C)c1C(=O)N1CC2CN(C(C)CC(NC(=O)C3CCC(F)(F)CC3)c3ccccc3)CC2C1 (stereo not drawn) [Compound I-448, 4,4-Difluoro-cyclohexanecarboxylic acid {3-[5-(4,6-dimethyl-pyrimidine-5-carbonyl)-hexahydro-pyrrolo[3,4-c]pyrrol-2-yl]-1-phenyl-butyl}-amide]"
86.4 to 87,0.001,Cc1ncnc(C)c1C(=O)N1CC2CN(C(C)C[C@H](NC(=O)C3CCC(F)(F)CC3)c3ccccc3)CC2C1 (stereo partly drawn) [Compound I-449]
58.1 to 65.2,0.0042,"CC(=O)N1CCC(C(=O)N(CCCN2C[C@@H]3CN(C(=O)c4c(C)cccc4C)C[C@@H]3C2)c2ccc(C)c(Cl)c2)CC1 [II-1, 1-Acetyl-piperidine-4-carboxylic acid (3-chloro-4-methyl-phenyl)-{3-[5-(2,6-dimethyl-benzoyl)-hexahydro-pyrrolo[3,4-c]pyrrol-2-yl]-propyl}]"
91.8 to 96.9,0.0184,"CC(=O)N1CCC(C(=O)N(CCCN2CC3CN(C(=O)c4c(C)ccnc4C)CC3C2)c2ccc(C)c(Cl)c2)CC1 (stereo not drawn) [II-3, 1-Acetyl-piperidine-4-carboxylic acid (3-chloro-4-methyl-phenyl)-{3-[5-(2,4-dimethyl-pyridine-3-carbonyl)-hexahydro-pyrrolo[3,4-c]pyrrol-2-yl]-propyl}-amide]"
60.9 to 62.4,–,"CC(=O)N1CCC(C(=O)N(CCC(C)N2CC3CN(C(=O)c4c(C)ccnc4C)CC3C2)c2ccc(C)c(Cl)c2)CC1 (stereo not drawn) [II-36, 1-Acetyl-piperidine-4-carboxylic acid (3-chloro-4-methyl-phenyl)-{3-[5-(2,4-dimethyl-pyridine-3-carbonyl)-hexahydro-pyrrolo[3,4-c]pyrrol-2-yl]-butyl}-amide]"
60.5 to 62.5,–,"Cc1ccc(N(CCCN2C[C@@H]3CN(C(=O)c4c(C)ccnc4C)C[C@@H]3C2)C(=O)Nc2ccc(Cl)cc2)cc1 [II-203, 3-(4-Chloro-phenyl)-1-{3-[(3aS,6aR)-5-(2,4-dimethyl-pyridine-3-carbonyl)-hexahydro-pyrrolo[3,4-c]pyrrol-2-yl]-propyl}-1-p-tolyl-urea]"
101.3 to 102.7,0.0015,Cc1ccc(N(CCCN2CC3CN(C(=O)c4c(C)cccc4C)CC3C2)C(=O)C2CCS(=O)(=O)CC2)cc1Cl (stereo not drawn) [II-279]
–,0.102,"Cc1ccc(N(CCCN2CC3CN(C(=O)c4c(C)ncnc4C)CC3C2)C(=O)C2CCN(C(=O)C(=O)O)CC2)cc1Cl (stereo not drawn) [II-303, [4-((3-Chloro-4-methyl-phenyl)-{3-[5-(4,6-dimethyl-pyrimidine-5-carbonyl)-hexahydro-pyrrolo[3,4-c]pyrrol-2-yl]-propyl}-carbamoyl)-piperidin-1-yl]-oxo-acetic acid, hydrochloride salt]"
–,0.0027,CCOC(=O)c1[nH]c(C)c(S(=O)(=O)N2CC3CN(CCCN(C(=O)C4CCN(C(C)=O)CC4)c4ccc(C)c(Cl)c4)CC3C2)c1C (stereo not drawn) [II-355]

SMILES,melting point [°C],IC50 [1] [µM]
Cc1nc(OCC(=O)O)nc(C)c1C(=O)N1CC2CN(CC[C@H](NC(=O)C3CCCC3)c3ccccc3)CC2C1 (stereo partly drawn) [Compound I-466],–,0.011
